Source: paper PMC11329504, “Identification of novel small molecule-based strategies of COL7A1 upregulation and readthrough activity for the treatment of recessive dystrophic epidermolysis bullosa” (Scientific Reports, 2024)
Where two headings read alike, the source gives them in different places.

Tests used:
[1] = Cytotoxicity, ATP levels, normal human keratinocytes (NHK); type: cell-based; conditions: normal human keratinocytes (NHK)
Protocol: The viability of RDEB patient-derived cell lines or NHK was evaluated by measuring the ATP levels as an indirect readout of the potential cytotoxicity effect of compounds. Cells were plated and treated exactly with the same conditions as those followed in the AlphaLISA assay, described above. To measure ATP levels, cells were processed using the ATPlite™ 1step luminescence-based assay (PerkinElmer 6,016,731), following the manufacturer’s protocol. 25 μL of ATPlite™ reagent was added directly over cells and plates were covered with a sealing film and shaken for 25 min using a microtiter plate shaker. Luminescence was measured in a Luminoskan Ascent luminometer (Thermo Fisher Scientific). 10 μM of Staurosporine was used as a reference compound and control for the total cytotoxicity.

RDEB_L1 cells = assay: RNAseq (HTPathwaySeq) transcriptomic profiling, GSEA; type: cell-based, human; conditions: 24 h; for modulation of GO terms related to NMD, readthrough, translation and unfolded protein response: 20 ng/mL TGFβ2, compound 7 and 8 at the highest concentrations tested of 100 and 300 µM
Protocol: The […]®) analysis was conducted at […], Belgium) using samples provided by Almirall. A total of 376 cell lysate samples representing 4 biological replicates of 94 samples were provided to […] in four 96-well plates. On each 96-well plate, two empty wells were allocated to include […] reference samples. Samples from the same biological group were distributed over the different plates to not confound inter-plate variability with biological signal. […] The compounds were evaluated in RDEB_L1 cells in the presence of 20 ng/mL TGFβ2 to mimic RDEB physiology and in normal human keratinocytes with no TGFβ2 treatment. Cells were treated during 24 h. Controls for RDEB_L1 cells not treated with TGFβ2 and RDEB_L1 and NHK cells treated with DMSO in the absence of compounds were also included. The conditions of the assay were identical to those described for the Real-time quantitative RT-PCR (see above). For the […], over 460 M reads were generated for 376 samples of interest, resulting in about 1.22 M reads per sample on average. […] is based on a 3'-end library preparation method, and gene body read coverage is concentrated towards the 3'-end of the genes. For quality control, a selection of lysate samples was checked for gDNA contamination and RNA content using qPCR before library preparation. RNA samples were processed to generate RNA-sequencing libraries using […] procedure based on the QuantSeq (Lexogen) 3'-end library preparation workflow. The quality of a selection of samples was assessed with the 2100 Bioanalyzer instrument (Agilent). Libraries were quantified using qPCR and pooled for single-end sequencing on a NextSeq 500 (Illumina) according to […] standard operating procedure. Raw reads were mapped to the human genome (hg38) and gene expression was quantified based on the Ensembl transcriptome annotation (version 85) using […]. Raw counts were normalized using […]2 prior to differential gene expression analysis. For each cell line, samples were clustered based on log-transformed normalized counts using tSNE. A perplexity parameter of 35 and a maximum number of 1000 iterations were applied. Genes with more than 10 normalized counts in at least 3 samples were used as input. Analysis was run in R (v3.2) with a fixed seed. […] For each contrast, genes ranked by fold change were used as input. PCA was applied on the fold changes of each compound vs their associated vehicle using the 500 genes with the greatest variance. Arrows connect the different incremental dosages used on each compound to observe their differentiation patterns. Pathway enrichment and PCA were performed using R v.3.2. Pathway enrichment was analyzed with cluster profile package. The procedure followed for the cell treatments of RDEB-L1 and NHEK, was the same as that used in the RT-qPCR study. Cell lysis and sample preparation were conducted according to […] instructions: Plates of treated cells were centrifuged for 5 min at 600 g at 4 °C, and the medium was carefully removed to avoid disturbing the cells. Then, cells were washed in PBS, centrifuged and the PBS was removed again. […] After checking that cells were lysed, the samples were transferred to 96-well PCR plates, and then sealed and stored at -80 °C to be sent to […].

[2] = test system: total (truncated + full length) C7 in RDEB_L1 cells; assay: AlphaLISA quantification of total C7 in RDEB_L1 cells; type: cell-based, human; conditions: for EC50: Homo sapiens
Protocol: The AlphaLISA assay was developed in-house by using the biotin-conjugated rabbit polyclonal antibody anti-C7 (LSBio LS-298147) and conjugating the acceptor beads (PerkinElmer 6772001) to a monoclonal anti-Collagen type VII antibody produced in mouse, clone LH7.2 (Thermo MA5-13,432). Formulation of the mAb clone LH7.2 was exchanged to PBS and concentrated 5 × by using Amicon® Ultra-0.5 centrifugal filters up to 1 mg/ml. The conjugation procedure was carried out according to the protocol provided by PerkinElmer.
For compound treatment in RDEB patient-derived transformed keratinocytes, 5,000 cells were plated in 20 µL of supplemented KGM media containing 20 ng/mL TGFβ2 (SIGMA GF113) without GA-1000 in 384-well cell culture plates (Greiner 781098). The day after, 5 µL of test compounds prepared 5 × in supplemented KGM without GA-1000 were added over cells and incubated for 48 h at 37 °C and 5% CO2. For compound treatment in HEK293^R578X, 10,000 cells were plated in 20 μL of DMEM (High Glucose, 2 mM L-Glutamine, sodium pyruvate, and FBS 10%) in 384-well cell culture plates (Greiner 781,098,). The day after, 5 μL of test compounds prepared 5 × in DMEM complete medium were added over cells and incubated for 48 h at 37 °C and 5% CO2.
After the treatment process, 2.5 µL of RIPA buffer 10 x (Abcam ab156034) were added over the […] of cells for 20 min at room temperature to obtain a complete cell lysis. Then, 2 μL of sample (i.e., cell lysate with supernatant) were transferred to the AlphaLISA plate (PerkinElmer 6,059,340) containing […] of antibodies mixture ([…] of acceptor Beads-Ab and […] of biotin-rAb) prepared in AlphaLISA buffer 1 x (PerkinElmer AL00F). The reaction was incubated for 90 min at room temperature. Finally, 10 μL of […] of donor beads (PerkinElmer 6760002,) were added to the reaction under subdued light, mixed gently, and incubated for 3 h at room temperature. AlphaLISA signal was detected with an Envision microplate reader (Perkin Elmer) using the following setting: Filter: AlphaScreen, Excitation time: 180 ms, Integration time: 300 ms.
Statistical analyses were performed using GraphPad Prism v. 7.04 (La Jolla, California). Results are shown as mean ± SD of experimental replicates. Dose–response curves to assess compound treatment effect were plotted in a four-parameter logistic model. Relative EC50, representing the total drug concentration producing a 50% effect, was calculated in the four-parameter logistic equation. Comparisons of collagen protein and mRNA expression in different experimental conditions were made using ANOVA, followed by a post hoc test. statistical significance was considered with p values < 0.05.

[3] = human, NHK cells, ATP levels, read-out: Cytotox. IC50
[4] = RDEB_L1 cells, total C7 AlphaLISA, 48 h, 20 ng/mL TGFß2, mean ± SD, read-out: Increase in C7 levels EC50(rel)

| EC50 [2, 4] | EC50 ([2]; in RDEB_L1 and RDEB_L5 cells, read-out: EC50 (range over two cell lines)) | EC50 ([2]; RDEB_L1 cells, no gentamicin (Fig. 4b), read-out: EC50 of compound 1, total C7 AlphaLISA) | decrease in the EC50 in the presence of increasing concentrations of gentamicin ([2]; RDEB_L1 cells) | Compound | IC50 [1, 3] | modulation of GO terms related to NMD, readthrough, translation and unfolded protein response (RDEB_L1 cells) | concentrations at which activity was detectable in the AlphaLISA assay ([2]; RDEB_L1 and L5 cells) | Increase in C7 levels Emax, % vs baseline ([2]; RDEB_L1 cells, 20 ng/mL TGFß2) | IC50 ([1]; read-out: cytotoxicity IC50) | TGFβ signaling pathway signature (GSEA) (RDEB_L1 cells; 20 ng/mL TGFβ2) | EC50 ([2]; Table 5 SAR, C7 AlphaLISA, 20 ng/mL TGFß2 (cell line not given; compound 7 values equal RDEB_L1 of Table 1), read-out: Increase in C7 levels EC50 (rel)) | Increase in C7 levels Emax, % vs baseline ([2]; RDEB_L1 cells, at 50 µM, 20 ng/mL TGFß2) | Increase in C7 levels Emax, % vs baseline ([2]; Table 5 SAR, at 50 μM, 20 ng/mL TGFß2) | TGFβ signaling pathway signature (GSEA) (RDEB_L1 cells; 20 ng/mL TGFβ2, at 10 µM) | Increase in C7 levels Emax, % vs baseline ([2]; RDEB_L1 cells, at 12 µM, 20 ng/mL TGFß2) | effect of the combination with gentamicin on total C7 levels ([2]; RDEB_L1 cells, both at concentrations in the range of their EC50, 48 h, 20 ng/mL TGFβ) |
| --- | --- | --- | --- | --- | --- | --- | --- | --- | --- | --- | --- | --- | --- | --- | --- | --- |
| 1700 ± 480 µM | 420 to 1700 µM | – | – | CNC(C)C1CCC(N)C(OC2C(N)CC(N)C(OC3OCC(C)(O)C(NC)C3O)C2O)O1 (stereo not drawn) [Gentamicin, reference compound] | 1600 ± 280 µM | modulating genes related with the response to unfolded and topologically incorrect proteins | > 100 µM | 199 ± 112 at 4100 % vs baseline | – | – | – | – | – | – | – | – |
| 3 ± 1.8 µM | – | 4.56 µM | threefold | NC(=O)Cn1ccc2ccc(-c3cnc(N)c(C(=O)NC4C5CC6CC4CC(O)(C6)C5)n3)cc21 (stereo not drawn) [Compound 1] | 19 ± 2.4 µM | Neither compound 1 nor chuangxinmycin nor 3-methyl-chuangxinmycin showed any impact on these pathways | – | – | – | – | – | – | – | Downregulation of TGFβ signaling | 3279 ± 1236 at 12 % vs baseline | synergistic effect |

| Compound | EC50 [2, 4] | EC50 ([2]; in RDEB_L1 and RDEB_L5 cells, read-out: EC50 (range over two cell lines)) | EC50 ([2]; RDEB_L1 cells, no gentamicin (Fig. 4b), read-out: EC50 of compound 1, total C7 AlphaLISA) | decrease in the EC50 in the presence of increasing concentrations of gentamicin ([2]; RDEB_L1 cells) | IC50 [1, 3] | modulation of GO terms related to NMD, readthrough, translation and unfolded protein response (RDEB_L1 cells) | concentrations at which activity was detectable in the AlphaLISA assay ([2]; RDEB_L1 and L5 cells) | Increase in C7 levels Emax, % vs baseline ([2]; RDEB_L1 cells, 20 ng/mL TGFß2) | IC50 ([1]; read-out: cytotoxicity IC50) | TGFβ signaling pathway signature (GSEA) (RDEB_L1 cells; 20 ng/mL TGFβ2) | EC50 ([2]; Table 5 SAR, C7 AlphaLISA, 20 ng/mL TGFß2 (cell line not given; compound 7 values equal RDEB_L1 of Table 1), read-out: Increase in C7 levels EC50 (rel)) | Increase in C7 levels Emax, % vs baseline ([2]; RDEB_L1 cells, at 50 µM, 20 ng/mL TGFß2) | Increase in C7 levels Emax, % vs baseline ([2]; Table 5 SAR, at 50 μM, 20 ng/mL TGFß2) | TGFβ signaling pathway signature (GSEA) (RDEB_L1 cells; 20 ng/mL TGFβ2, at 10 µM) | Increase in C7 levels Emax, % vs baseline ([2]; RDEB_L1 cells, at 12 µM, 20 ng/mL TGFß2) | effect of the combination with gentamicin on total C7 levels ([2]; RDEB_L1 cells, both at concentrations in the range of their EC50, 48 h, 20 ng/mL TGFβ) |
| --- | --- | --- | --- | --- | --- | --- | --- | --- | --- | --- | --- | --- | --- | --- | --- | --- |
| C#Cc1cc(-c2ccncc2)c(-c2cccc(F)c2)nc1N [Compound 7] | 17 ± 6.6 µM | – | – | – | – | modulating genes specifically related to cytoplasmic translation and the ribosome | – | – | > 100 µM | did not show any effect | 17 ± 6.6 µM | 412 ± 80 at 50 % vs baseline | 412 ± 80 at 50 % vs baseline | – | – | – |
